Laboratory results from patent publication US20040157738A1, “Novel oxygen containing fused cyclic derivatives and herbicidal, desiccant and defoliate compositions containing them” (ISHIHARA SANGYO KAISHA, LTD., priority 2003, published 2004).

How the values were obtained:
Format in all cases: in vivo
[1] = test system: crabgrass (Digitaria sanguinalis L.), DIGSA; assay: Test Example 2: post-emergence (foliage treatment) herbicidal activity (growth controlling degree); conditions: 1.5-2.2 leaf stage; for pest or weed control at 63 g/ha: 63 g a.i./ha
Text: (§1) Upland field soil was put into a 1/170,000 ha pot, and seeds of various plants were sown. Then, when the plants reached predetermined leaf stages [I. barnyardgrass (Echinochloa crus-galli L.), ECHCG: 1.8-2.4 leaf stage, 2. crabgrass (Digitaria sanguinalis L.), DIGSA: 1.5-2.2 leaf stage, 3. green foxtail (Setaria viridis L.), SETVI: 1.7-2.5 leaf stage, 4. redroot pigweed (Amaranthus retroflexus L.), AMARE: 0.1-0.3 leaf stage, 5. prickly sida (Sida spinosa L.), SIDSP: 0.3-0.5 leaf stage, 6. velvetleaf (Abutilon theophrasti), ABUTH: 0.3-0.4 leaf stage, 7. common cocklebur (Xanthium strumarium L.), XANST: 0.2-0.6 leaf stage, 8. rice (Oryza sativa L.), ORYSA: 1.6-2.2 leaf stage, 9. wheat (Triticum aestivum L.), TRZAX: 2.8 leaf stage, 10. corn (Zea mays L.), ZEAMX: 2.2-2.5 leaf stage, 11. soybean (Glycine max Merr.), GLXMA: 0.2-0.3 leaf stage], a wettable powder or emulsifiable concentrate having the compound of the present invention formulated in accordance with a usual formulation method, was weighed so that the active ingredient would be a predetermined amount, and diluted with water in an amount of 500 L/ha. To the diluted solution, 0.1%(v/v) of an agricultural spreader was added. The herbicide adjusted was applied by a small size sprayer for foliage treatment. On the […] day after the application of the herbicide, the growth of the respective plants was visually observed, and the herbicidal effects were evaluated by growth controlling degrees (%) ranging from 0 (equivalent to the untreated control) to 100 (complete kill), whereby the results shown in Table 12, were obtained. Compound Nos. in Table 12 correspond to Compound Nos. in Table 1 to 7 given hereinbefore.

[2] = test system: soybean (Glycine max Merr.), GLXMA; assay: as above; conditions: 0.2-0.3 leaf stage; for pest or weed control at 63 g/ha: 63 g a.i./ha
Text: as §1

[3] = test system: barnyardgrass (Echinochloa crus-galli L.), ECHCG; assay: as above; conditions: 1.8-2.4 leaf stage; for pest or weed control at 63 g/ha: 63 g a.i./ha
Text: as §1

[4] = test system: prickly sida (Sida spinosa L.), SIDSP; assay: as above; conditions: 0.3-0.5 leaf stage; for pest or weed control at 63 g/ha: 63 g a.i./ha
Text: as §1

[5] = test system: rice (Oryza sativa L.), ORYSA; assay: as above; conditions: 1.6-2.2 leaf stage; for plant injury at 63 g/ha: 63 g a.i./ha
Text: as §1

[6] = test system: redroot pigweed (Amaranthus retroflexus L.), AMARE; assay: as above; conditions: 0.1-0.3 leaf stage
Text: as §1

[7] = test system: corn (Zea mays L.), ZEAMX; assay: as above; conditions: 2.2-2.5 leaf stage; for plant injury at 63 g/ha: 63 g a.i./ha
Text: as §1

[8] = test system: velvetleaf (Abutilon theophrasti), ABUTH; assay: as above; conditions: 0.3-0.4 leaf stage; for pest or weed control at 63 g/ha: 63 g a.i./ha
Text: as §1

[9] = test system: green foxtail (Setaria viridis L.), SETVI; assay: as above; conditions: 1.7-2.5 leaf stage; for pest or weed control at 63 g/ha: 63 g a.i./ha
Text: as §1

[10] = test system: common cocklebur (Xanthium strumarium L.), XANST; assay: as above; conditions: 0.2-0.6 leaf stage; for pest or weed control at 63 g/ha: 63 g a.i./ha
Text: as §1

[11] = test system: redroot pigweed (Amaranthus retroflexus L.): AMARE; assay: Test Example 1: pre-emergence herbicidal activity (growth controlling degree); conditions: 20th to 21st day after application
Text: (§2) Upland field soil was put into a 1/170,000 ha pot, and seeds of various plants [1. barnyardgrass (Echinochloa crus-galli L.): ECHCC, 2. crabgrass (Digitaria sanguinalis L.): DIGSA, 3. green foxtail (Setaria viridis L.): SETVI, 4. redroot pigweed (Amaranthus retroflexus L.): AMARE, 5. prickly sida (Sida spinosa L.): SIDSP, 6. velvetleaf (Abutilon theophrasti): ABUTH, 7. common cocklebur (Xanthium strumarium L.): XANST, 8. rice (Oryza sativa L.): ORYSA, 9. wheat (Triticum aestivum L.): TRZAX, 10. corn (Zea mays L.): ZEAMX, 11. soybean (Glycine max Merr.): GLXMA] were sown. Then, one day after the sowing, a wettable powder or emulsifiable concentrate having the compound of the present invention formulated in accordance with a usual formulation method, was weighed so that the active ingredient would be a predetermined amount, and diluted with water in an amount of 500 L/ha. The herbicide adjusted was applied by a small size sprayer for pre-emergence treatment. On the 20th to 21st day after the application of the herbicide, the growth of the respective plants was visually observed, and the herbicidal effects were evaluated by growth controlling degrees (%) ranging from 0 (equivalent to the untreated control) to 100 (complete kill), whereby the results shown in Table 11, were obtained. Compound Nos. in Table 11 correspond to Compound Nos. in Table 1 to 7 given hereinbefore.

[12] = test system: prickly sida (Sida spinosa L.): SIDSP; assay: as above; conditions: 20th to 21st day after application
Text: as §2

[13] = test system: corn (Zea mays L.): ZEAMX; assay: as above; conditions: 20th to 21st day after application
Text: as §2

[14] = test system: common cocklebur (Xanthium strumarium L.): XANST; assay: as above; conditions: 20th to 21st day after application
Text: as §2

[15] = test system: rice (Oryza sativa L.): ORYSA; assay: as above; conditions: 20th to 21st day after application
Text: as §2

[16] = test system: velvetleaf (Abutilon theophrasti): ABUTH; assay: as above; conditions: 20th to 21st day after application
Text: as §2

[17] = test system: soybean (Glycine max Merr.): GLXMA; assay: as above; conditions: 20th to 21st day after application
Text: as §2

[18] = test system: green foxtail (Setaria viridis L.): SETVI; assay: as above; conditions: 20th to 21st day after application
Text: as §2

[19] = test system: crabgrass (Digitaria sanguinalis L.): DIGSA; assay: as above; conditions: 20th to 21st day after application
Text: as §2

[20] = test system: barnyardgrass (Echinochloa crus-galli L.): ECHCC; assay: as above; conditions: 20th to 21st day after application
Text: as §2

[21] = Digitaria sanguinalis, 504 h, read-out: growth controlling degree, DIGSP

| Compound | pest or weed control at 63 g/ha [1, 21] [%] | pest or weed control at 63 g/ha ([2]; Glycine max, 504 h) [%] | pest or weed control at 63 g/ha ([3]; Echinochloa crus-galli, 504 h) [%] | pest or weed control at 63 g/ha ([4]; Sida spinosa, 504 h) [%] | plant injury at 63 g/ha ([5]; Oryza sativa, 504 h) [%] | growth controlling degree, AMARE ([6]; 63 g a.i./ha) [%] | plant injury at 63 g/ha ([7]; Zea mays, 504 h) [%] | pest or weed control at 63 g/ha ([8]; Abutilon theophrasti, 504 h) [%] | pest or weed control at 63 g/ha ([9]; Setaria viridis, 504 h) [%] | pest or weed control at 63 g/ha ([10]; Xanthium strumarium, 504 h) [%] | growth controlling degree, AMARE ([11]; 250 g a.i./ha) [%] | growth controlling degree, SIDSP ([12]; 250 g a.i./ha) [%] | growth controlling degree, ZEAMX ([13]; 250 g a.i./ha) [%] | growth controlling degree, XANST ([14]; 250 g a.i./ha) [%] | growth controlling degree, ORYSA ([15]; 250 g a.i./ha) [%] | growth controlling degree, ABUTH ([16]; 250 g a.i./ha) [%] | growth controlling degree, GLXMA ([17]; 250 g a.i./ha) [%] | growth controlling degree, SETVI ([18]; 250 g a.i./ha) [%] | growth controlling degree, DIGSP ([19]; 250 g a.i./ha) [%] | growth controlling degree, ECHCG ([20]; 250 g a.i./ha) [%] | other results |
| --- | --- | --- | --- | --- | --- | --- | --- | --- | --- | --- | --- | --- | --- | --- | --- | --- | --- | --- | --- | --- | --- |
| Cn1nc(-c2c(F)cc(Cl)c3c2CCC(c2ccccc2)O3)c(Cl)c1OC(F)F (centres unmarked) [Compound 1-42] | 50 | 60 | 60 | 100 | 70 | 100 | 30 | 100 | 98 | 100 | 100 | 80 | 10 | 0 | 40 | 50 | 10 | 100 | 100 | 100 | – |
| CC1CCc2c(c(Cl)cc(F)c2-c2nn(C)c(OC(F)F)c2Cl)O1 (centres unmarked) [Compound 1-39] | – | – | – | – | – | – | – | – | – | – | 100 | 100 | 70 | 100 | 50 | 100 | 30 | 100 | 100 | 100 | pest or weed control at 31 g/ha ([1]; Digitaria sanguinalis, 504 h, 31 g a.i./ha, read-out: growth controlling degree, DIGSP): 100%; pest or weed control at 31 g/ha ([2]; Glycine max, 504 h, 31 g a.i./ha): 100%; pest or weed control at 31 g/ha ([3]; Echinochloa crus-galli, 504 h, 31 g a.i./ha): 100%; pest or weed control at 31 g/ha ([4]; Sida spinosa, 504 h, 31 g a.i./ha): 100%; plant injury at 31 g/ha ([5]; Oryza sativa, 504 h, 31 g a.i./ha): 98%; growth controlling degree, AMARE ([6]; 31 g a.i./ha): 100%; plant injury at 31 g/ha ([7]; Zea mays, 504 h, 31 g a.i./ha): 98%; pest or weed control at 31 g/ha ([8]; Abutilon theophrasti, 504 h, 31 g a.i./ha): 100%; pest or weed control at 31 g/ha ([9]; Setaria viridis, 504 h, 31 g a.i./ha): 100%; pest or weed control at 31 g/ha ([10]; Xanthium strumarium, 504 h, 31 g a.i./ha): 100% |
| CCCCCC1CCc2c(c(Cl)cc(F)c2-c2nn(C)c(OC(F)F)c2Cl)O1 (centres unmarked) [Compound 1-101] | – | – | – | – | – | – | – | – | – | – | – | – | – | – | – | – | – | – | – | – | growth controlling degree, DIGSP ([1]; 31 g a.i./ha): 100%; growth controlling degree, GLXMA ([2]; 31 g a.i./ha): 70%; growth controlling degree, ECHCG ([3]; 31 g a.i./ha): 100%; growth controlling degree, SIDSP ([4]; 31 g a.i./ha): 100%; growth controlling degree, ORYSA ([5]; 31 g a.i./ha): 60%; growth controlling degree, AMARE ([6]; 31 g a.i./ha): 100%; growth controlling degree, ZEAMX ([7]; 31 g a.i./ha): 70%; growth controlling degree, ABUTH ([8]; 31 g a.i./ha): 100%; growth controlling degree, SETVI ([9]; 31 g a.i./ha): 100%; growth controlling degree, XANST ([10]; 31 g a.i./ha): 100%; growth controlling degree, AMARE ([11]; 125 g a.i./ha): 100%; growth controlling degree, SIDSP ([12]; 125 g a.i./ha): 80%; growth controlling degree, ZEAMX ([13]; 125 g a.i./ha): 40%; growth controlling degree, XANST ([14]; 125 g a.i./ha): 30%; growth controlling degree, ORYSA ([15]; 125 g a.i./ha): 30%; growth controlling degree, ABUTH ([16]; 125 g a.i./ha): 60%; growth controlling degree, GLXMA ([17]; 125 g a.i./ha): 10%; growth controlling degree, SETVI ([18]; 125 g a.i./ha): 100%; growth controlling degree, DIGSP ([19]; 125 g a.i./ha): 100%; growth controlling degree, ECHCG ([20]; 125 g a.i./ha): 80% |
| Cn1nc(-c2c(F)cc(Cl)c3c2CCCO3)c(Cl)c1C(F)(F)F [Compound 1-2, 4-chloro-3-(8-chloro-6-fluoro-3,4-dihydro-2H-1-benzopyran-5-yl)-1-methyl-5-(trifluoromethyl)-1H-pyrazole] | 60 | 60 | 98 | 98 | 50 | 100 | 60 | 100 | 70 | 100 | – | – | – | – | – | – | – | – | – | – | growth controlling degree, AMARE ([11]; 125 g a.i./ha): 100%; growth controlling degree, SIDSP ([12]; 125 g a.i./ha): 100%; growth controlling degree, ZEAMX ([13]; 125 g a.i./ha): 10%; growth controlling degree, XANST ([14]; 125 g a.i./ha): 100%; growth controlling degree, ORYSA ([15]; 125 g a.i./ha): 20%; growth controlling degree, ABUTH ([16]; 125 g a.i./ha): 100%; growth controlling degree, GLXMA ([17]; 125 g a.i./ha): 10%; growth controlling degree, SETVI ([18]; 125 g a.i./ha): 100%; growth controlling degree, DIGSP ([19]; 125 g a.i./ha): 100%; growth controlling degree, ECHCG ([20]; 125 g a.i./ha): 100% |
